US20150289513A1, “USE OF A COMPOUND COMPRISING A POLYFLUOROBENZYL MOIETY AGAINST INSECTICIDE-RESISTANT PESTS” (priority 2012, published 2015)

Experiments:
Assay in all cases: Glazed tile contact test, knock-down
Type in all cases: in vivo
[1] = tested on: Aedes aegypti (target-site-resistant strain: Grand Cayman)
Protocol: To produce a suitable preparation Transfluthrin was dissolved in acetone. The active compound solution was pipetted onto a glazed tile and, after drying, adult mosquitoes of the species Aedes aegypti (target-site-resistant strain: Grand Cayman) were placed onto the treated tile. The exposition time was 30 minutes.
(§1) 0.25 hours, 0.5 hours, 1 hour, 2 hour, 3 hour, 4 hour and 24 hours after contact to the treated surface, the knock-down proportion of the test animals in % was determined. Here, 100% (effect) means that all mosquitoes have been killed; 0% (effect) means that none of the mosquitoes have been killed.

[2] = tested on: Anopheles gambiae (target-site-resistant strain: VK7)
Protocol: (§2) To produce a suitable preparation Transfluthrin was dissolved in acetone. The active compound solution was pipetted onto a glazed tile and, after drying, adult mosquitoes of the species: • Anopheles gambiae (target-site-resistant and metabolic-resistant strain: RSPH), • Anopheles gambiae (target-site-resitant and metabolic-resistant strain: Tiassalé), • Anopheles gambiae (tar et-site-resitant and metabolic-resistant strain: Akron), • Anopheles gambiae (target-site-resistant strain: VK7), and • Anopheles funestus (metabolic-resistant strain FUMOZ-R) were placed onto the treated tile (each strain was tested on separate tiles). The exposition time was 30 minutes.
as §1

[3] = tested on: Anopheles gambiae (strain: Tiassalé)
Protocol: as §2, §1

[4] = tested on: Anopheles gambiae (strain: Akron)
Protocol: as §2, §1

[5] = 0.064 g/ha, 0.25 h after contact
[6] = 0.064 g/ha, 0.5 h after contact
[7] = 0.32 g/ha, 0.25 h after contact

For CC1(C)[C@H](C=C(Cl)Cl)[C@H]1C(=O)OCc1c(F)c(F)cc(F)c1F [Transfluthrin, (1R,3S)-3-(2,2-Dichlorovinyl)-2,2-dimethyl-1-cyclopropanecarboxylic acid (2,3,5,6-tetrafluorophenyl)methyl ester], the Effect % [1, 5] was 5%, the Effect % [1, 6] was 0% and the Effect % ([1]; 0.064 g/ha, 1 h after contact) was 0%. For the same compound, the Effect % ([1]; 0.064 g/ha, 2 h after contact) was 0%, the Effect % ([1]; 0.064 g/ha, 3 h after contact) was 0% and the Effect % ([1]; 0.064 g/ha, 4 h after contact) was 0%. The Effect % ([1]; 0.064 g/ha, 24 h after contact) was 10%, the Effect % [1, 7] was 20% and the Effect % ([1]; 0.32 g/ha, 0.5 h after contact) was 25%. For the same compound, the Effect % ([1]; 0.32 g/ha, 1 h after contact) was 30%, the Effect % ([1]; 0.32 g/ha, 2 h after contact) was 20% and the Effect % ([1]; 0.32 g/ha, 3 h after contact) was 20%. For the same compound, the Effect % ([1]; 0.32 g/ha, 4 h after contact) was 25%, the Effect % ([1]; 0.32 g/ha, 24 h after contact) was 20% and the Effect % ([1]; 1.6 g/ha, 0.25 h after contact) was 70%. For the same compound, the Effect % ([1]; 1.6 g/ha, 0.5 h after contact) was 60%, the Effect % ([1]; 1.6 g/ha, 1 h after contact) was 70% and the Effect % ([1]; 1.6 g/ha, 2 h after contact) was 70%. For the same compound, the Effect % ([1]; 1.6 g/ha, 3 h after contact) was 65%, the Effect % ([1]; 1.6 g/ha, 4 h after contact) was 60% and the Effect % ([1]; 1.6 g/ha, 24 h after contact) was 70%. It also gave an Effect % ([1]; 8 g/ha, 0.25 h after contact) of 90%, an Effect % ([1]; 8 g/ha, 0.5 h after contact) of 100% and an Effect % ([1]; 8 g/ha, 1 h after contact) of 100%. The Effect % ([1]; 8 g/ha, 2 h after contact) was 90%, the Effect % ([1]; 8 g/ha, 3 h after contact) was 100% and the Effect % ([1]; 8 g/ha, 4 h after contact) was 90%. It also gave an Effect % ([1]; 8 g/ha, 24 h after contact) of 90%, an Effect % ([1]; 40 g/ha, 0.25 h after contact) of 100% and an Effect % ([1]; 40 g/ha, 0.5 h after contact) of 100%. It also gave an Effect % ([1]; 40 g/ha, 1 h after contact) of 100%, an Effect % ([1]; 40 g/ha, 2 h after contact) of 100% and an Effect % ([1]; 40 g/ha, 3 h after contact) of 100%. The Effect % ([1]; 40 g/ha, 4 h after contact) was 100%, the Effect % ([1]; 40 g/ha, 24 h after contact) was 100% and the Effect % ([1]; 200 g/ha, 0.25 h after contact) was 100%. The Effect % ([1]; 200 g/ha, 0.5 h after contact) was 100%, the Effect % ([1]; 200 g/ha, 1 h after contact) was 100% and the Effect % ([1]; 200 g/ha, 2 h after contact) was 100%. It also gave an Effect % ([1]; 200 g/ha, 3 h after contact) of 100%, an Effect % ([1]; 200 g/ha, 4 h after contact) of 100% and an Effect % ([1]; 200 g/ha, 24 h after contact) of 100%. It also gave an Effect % [2, 5] of 5%, an Effect % [2, 6] of 5% and an Effect % ([2]; 0.064 g/ha, 1 h after contact) of 5%. For the same compound, the Effect % ([2]; 0.064 g/ha, 2 h after contact) was 15%, the Effect % ([2]; 0.064 g/ha, 3 h after contact) was 15% and the Effect % ([2]; 0.064 g/ha, 4 h after contact) was 15%. For the same compound, the Effect % ([2]; 0.064 g/ha, 24 h after contact) was 25%, the Effect % [2, 7] was 25% and the Effect % ([2]; 0.32 g/ha, 0.5 h after contact) was 35%. The Effect % ([2]; 0.32 g/ha, 1 h after contact) was 20%, the Effect % ([2]; 0.32 g/ha, 2 h after contact) was 20% and the Effect % ([2]; 0.32 g/ha, 3 h after contact) was 20%. For the same compound, the Effect % ([2]; 0.32 g/ha, 4 h after contact) was 25%, the Effect % ([2]; 0.32 g/ha, 24 h after contact) was 30% and the Effect % ([2]; 1.6 g/ha, 0.25 h after contact) was 80%. The Effect % ([2]; 1.6 g/ha, 0.5 h after contact) was 90%, the Effect % ([2]; 1.6 g/ha, 1 h after contact) was 85% and the Effect % ([2]; 1.6 g/ha, 2 h after contact) was 80%. For the same compound, the Effect % ([2]; 1.6 g/ha, 3 h after contact) was 65%, the Effect % ([2]; 1.6 g/ha, 4 h after contact) was 85% and the Effect % ([2]; 1.6 g/ha, 24 h after contact) was 65%. For the same compound, the Effect % ([2]; 8 g/ha, 0.25 h after contact) was 100%, the Effect % ([2]; 8 g/ha, 0.5 h after contact) was 100% and the Effect % ([2]; 8 g/ha, 1 h after contact) was 100%. For the same compound, the Effect % ([2]; 8 g/ha, 2 h after contact) was 100%, the Effect % ([2]; 8 g/ha, 3 h after contact) was 100% and the Effect % ([2]; 8 g/ha, 4 h after contact) was 100%. It also gave an Effect % ([2]; 8 g/ha, 24 h after contact) of 100%, an Effect % ([2]; 40 g/ha, 0.25 h after contact) of 100% and an Effect % ([2]; 40 g/ha, 0.5 h after contact) of 100%. It also gave an Effect % ([2]; 40 g/ha, 1 h after contact) of 100%, an Effect % ([2]; 40 g/ha, 2 h after contact) of 100% and an Effect % ([2]; 40 g/ha, 3 h after contact) of 100%. The Effect % ([2]; 40 g/ha, 4 h after contact) was 100%, the Effect % ([2]; 40 g/ha, 24 h after contact) was 100% and the Effect % ([2]; 200 g/ha, 0.25 h after contact) was 100%. For the same compound, the Effect % ([2]; 200 g/ha, 0.5 h after contact) was 100%, the Effect % ([2]; 200 g/ha, 1 h after contact) was 100% and the Effect % ([2]; 200 g/ha, 2 h after contact) was 100%. The Effect % ([2]; 200 g/ha, 3 h after contact) was 100%, the Effect % ([2]; 200 g/ha, 4 h after contact) was 100% and the Effect % ([2]; 200 g/ha, 24 h after contact) was 100%. It also gave an Effect % [3, 5] of 5%, an Effect % [3, 6] of 10% and an Effect % ([3]; 0.064 g/ha, 1 h after contact) of 15%. The Effect % ([3]; 0.064 g/ha, 2 h after contact) was 15%, the Effect % ([3]; 0.064 g/ha, 3 h after contact) was 15% and the Effect % ([3]; 0.064 g/ha, 4 h after contact) was 10%. For the same compound, the Effect % ([3]; 0.064 g/ha, 24 h after contact) was 20%, the Effect % [3, 7] was 5% and the Effect % ([3]; 0.32 g/ha, 0.5 h after contact) was 15%. It also gave an Effect % ([3]; 0.32 g/ha, 1 h after contact) of 5%, an Effect % ([3]; 0.32 g/ha, 2 h after contact) of 10% and an Effect % ([3]; 0.32 g/ha, 3 h after contact) of 10%. It also gave an Effect % ([3]; 0.32 g/ha, 4 h after contact) of 10%, an Effect % ([3]; 0.32 g/ha, 24 h after contact) of 15% and an Effect % ([3]; 1.6 g/ha, 0.25 h after contact) of 0%. It also gave an Effect % ([3]; 1.6 g/ha, 0.5 h after contact) of 15%, an Effect % ([3]; 1.6 g/ha, 1 h after contact) of 10% and an Effect % ([3]; 1.6 g/ha, 2 h after contact) of 5%. It also gave an Effect % ([3]; 1.6 g/ha, 3 h after contact) of 5%, an Effect % ([3]; 1.6 g/ha, 4 h after contact) of 0% and an Effect % ([3]; 1.6 g/ha, 24 h after contact) of 10%. The Effect % ([3]; 8 g/ha, 0.25 h after contact) was 90%, the Effect % ([3]; 8 g/ha, 0.5 h after contact) was 100% and the Effect % ([3]; 8 g/ha, 1 h after contact) was 100%. It also gave an Effect % ([3]; 8 g/ha, 2 h after contact) of 85%, an Effect % ([3]; 8 g/ha, 3 h after contact) of 80% and an Effect % ([3]; 8 g/ha, 4 h after contact) of 85%. For the same compound, the Effect % ([3]; 8 g/ha, 24 h after contact) was 60%, the Effect % ([3]; 40 g/ha, 0.25 h after contact) was 100% and the Effect % ([3]; 40 g/ha, 0.5 h after contact) was 100%. It also gave an Effect % ([3]; 40 g/ha, 1 h after contact) of 100%, an Effect % ([3]; 40 g/ha, 2 h after contact) of 95% and an Effect % ([3]; 40 g/ha, 3 h after contact) of 90%. For the same compound, the Effect % ([3]; 40 g/ha, 4 h after contact) was 85%, the Effect % ([3]; 40 g/ha, 24 h after contact) was 85% and the Effect % ([3]; 200 g/ha, 0.25 h after contact) was 100%. The Effect % ([3]; 200 g/ha, 0.5 h after contact) was 100%, the Effect % ([3]; 200 g/ha, 1 h after contact) was 100% and the Effect % ([3]; 200 g/ha, 2 h after contact) was 100%. For the same compound, the Effect % ([3]; 200 g/ha, 3 h after contact) was 100%, the Effect % ([3]; 200 g/ha, 4 h after contact) was 100% and the Effect % ([3]; 200 g/ha, 24 h after contact) was 85%. The Effect % [4, 5] was 5%, the Effect % [4, 6] was 5% and the Effect % ([4]; 0.064 g/ha, 1 h after contact) was 10%. The Effect % ([4]; 0.064 g/ha, 2 h after contact) was 10%, the Effect % ([4]; 0.064 g/ha, 3 h after contact) was 5% and the Effect % ([4]; 0.064 g/ha, 4 h after contact) was 5%. The Effect % ([4]; 0.064 g/ha, 24 h after contact) was 15%, the Effect % [4, 7] was 5% and the Effect % ([4]; 0.32 g/ha, 0.5 h after contact) was 0%. It also gave an Effect % ([4]; 0.32 g/ha, 1 h after contact) of 5%, an Effect % ([4]; 0.32 g/ha, 2 h after contact) of 5% and an Effect % ([4]; 0.32 g/ha, 3 h after contact) of 10%. The Effect % ([4]; 0.32 g/ha, 4 h after contact) was 5%, the Effect % ([4]; 0.32 g/ha, 24 h after contact) was 10% and the Effect % ([4]; 200 g/ha, 0.25 h after contact) was 100%. The Effect % ([4]; 200 g/ha, 0.5 h after contact) was 100%.
